Patent US9198957B2, “Treatment and prevention of bacterial vaginosis and Gardnerella vaginalis infections” (The Trustees of Columbia University in the City of New York, priority 2011, dated 2015)

Tests used:
Atopobium vaginae = details: reference (80); cited from earlier work
[1] = reference (77); cited from earlier work
strain 49145 = experiment: MIC by E-test, strain 49145; assay type: cell-based, Gardnerella vaginalis; details: Mueller-Hinton agar with 5% sheep's blood, CLSI, repeated twice
strain ARG3 = experiment: MIC by E-test, strain ARG3; assay type: cell-based, Gardnerella vaginalis; details: Mueller-Hinton agar with 5% sheep's blood, CLSI, repeated twice
[2] = test system: BV and G. vaginalis infections; details: cited from earlier work
[3] = test system: Gardnerella strain 49145 biofilm; experiment: Inhibition of newly forming biofilm (safranin stain, A462), strain 49145; assay type: cell-based, Gardnerella vaginalis; details: for reduction in biofilm formation (% biofilm density): FIG. 6
Protocol: (§1) Biofilms of multiple Gardnerella strains [G. Vaginalis is the only species in the genus Gardnerella.] were grown, separately, in vitro in 96-well plates in BHI-supplemented media. Bovine pancreas DNase was added in varying concentrations to biofilm cultures at 0 hours (newly forming biofilms) and 24 hours (established biofilms.) The biofilms were washed, the supernatant was removed, and the biofilms were stained with safranin and solubilized in acetic acid. Biofilm absorbance at A462 nm was measured with a spectrophotometer, which method quantifies the amount of safranin stain taken up by the biofilm. DNase-treated and untreated biofilms were also grown in chamber slides and DAPI staining was performed for fluorescence microscopy.
(§2) Biofilms were grown in the presence of varying concentrations of antibiotic and DNase administered at t=0 hours to test the effect of the agents on biofilm formation. To test the effects on the degradation of established biofilms, the agents were administered at t=24 hours.
All cultures and biofilms were grown in ‘biofilm media’ (BHI media+0.3% starch, 0.3% glucose, 0.5 mcg/mL amphotericin B) at 37° C. and 5% CO2. Liquid cultures of strains 49145 or ARG3 were grown overnight to a standardized OD600 of 0.6 and diluted 1:10 prior to aliquoting for biofilms. Cultures were aliquoted into 96-well plates as follows:
(§3) 180 μL of bacteria and 20 μL of DNase at varying concentrations (1:10 dilutions of 1 mg/mL to final concentrations in the wells as labeled in the figures) or PBS as a control (total volume always 200 μL) were added together at t=0 hours and incubated for 24 hours. They were then washed, stained with safranin and solubilized with ascetic acid, with measurement of absorbance at 462 nm to quantify density of stained material.
160 μL of culture, 20 µL of antibiotic at varying concentrations (1:10 and 2-fold dilutions to final concentrations in wells as labeled in the figures), and 20 μL of DNase at varying concentrations (1:10 dilutions as above) with 20-40 μL of PBS used when necessary for controls (wells without antibiotic, DNase, or both) were added to wells at t=0 hours and incubated for 24 hours as above. Biofilms were quantified as above.

[4] = test system: Gardnerella strain ARG3 biofilm; experiment: Inhibition of newly forming biofilm (safranin stain), strain ARG3; assay type: cell-based, Gardnerella vaginalis; details: DNase 10 μg/ml and 100 μg/ml, time=0 hours; FIG. 2
Protocol: as §1
Biofilms were grown in the presence of varying concentrations of antibiotic and DNase administered at t=0 hours to test the effect of the agents on biofilm formation. […]
as §3, with “material. […]” for “material.”

[5] = test system: established Gardnerella strain 49145 biofilms; experiment: Breakdown of established (24 h) biofilm, strain 49145; assay type: cell-based, Gardnerella vaginalis; details: DNase administered at t=24 hours; FIG. 3
Protocol: as §1, §2
(§4) All cultures and biofilms were grown in ‘biofilm media’ (BHI media+0.3% starch, 0.3% glucose, 0.5 mcg/mL amphotericin B) at 37° C. and 5% CO2. Liquid cultures of strains 49145 or ARG3 were grown overnight to a standardized OD600 of 0.6 and diluted 1:10 prior to aliquoting for biofilms. […]
(§5) For quantification as above, antibiotic concentrations were chosen based on the MIC (⅛-4× MIC).

[6] = test system: established Gardnerella strain ARG3 biofilms; experiment: Breakdown of established (24 h) biofilm, strain ARG3; assay type: cell-based, Gardnerella vaginalis; details: DNase administered at t=24 hours; FIG. 4
Protocol: as §1, §2, §4, §5

[7] = test system: group B Streptococcus biofilm; experiment: Inhibition of group B Streptococcus biofilm formation (A462); assay type: cell-based; details: DNase 100 μg/ml, t=0 hours; FIG. 17
Protocol: as §1, §3
The results depicted in FIG. 17 show the dose-response inhibition of group B Streptococcus biofilm formation by DNase that was administered at t=0 hours as assessed by measuring the absorbance of light at 462 nm (A462).

[8] = test system: ATCC Gardnerella strain 49145 biofilms; experiment: Liberation of bacteria from biofilm into supernatant / bacterial killing (colony counts); assay type: cell-based, Gardnerella vaginalis
Protocol: Further experiments were conducted to assess whether there is an improved effect on biofilm formation and breakdown by the combined administration of DNase and antibiotics against Gardnerella. The y axis plots the % of biofilm absorbance A462 for each condition. […] The minimum inhibitory concentration (MIC) for the antibiotics was measured by E-testing the relevant strains. Colony counts were performed on both the supernatant and the biofilm components of the culture, and a one-way ANOVA with Bonferroni post-tests were performed using Prism (Graphpad) where DNase was administered at time=24 hours.

G. Vaginalis ARG37 = experiment: Murine model of vaginal colonization; assay type: in vivo; details: co-inoculation with DNase, mice, strain ARG37; FIG. 16
Description: The same strategy works in the complex environment of the lower genital tract in murine models of vaginal colonization. Models for vaginal colonization of mice with G. Vaginalis and group B Streptococcus have been developed. […] FIG. 16. These models will important in prophylactic use in at-risk populations including, but not limited to, pregnant women, those individuals infected with sexually transmitted diseases including HIV, and those individuals with recurrent BV.

Gardnerella biofilms = experiment: Fluorescence microscopy of DNase-treated biofilms; assay type: cell-based, Gardnerella vaginalis; details: DNase-treated vs untreated biofilms
[9] = test system: biofilms made by G. vaginalis; details: Patterson et al. 2007; cited from earlier work

## CC(=O)NC[C@H]1CN(c2ccc(N3CCOCC3)c(F)c2)C(=O)O1 [linezolid]
Atopobium vaginae
  Etest susceptibility concentration (range): 0.016 to 0.125 µg/mL

## CCS(=O)(=O)CCn1c([N+](=O)[O-])cnc1C [Tinidazole]
[1]
  half-life: 12 to 14 h

## CC[C@H]1OC(=O)[C@H](C)[C@@H](O[C@H]2C[C@@](C)(OC)[C@@H](O)[C@H](C)O2)[C@H](C)[C@@H](O[C@@H]2O[C@H](C)C[C@H](N(C)C)[C@H]2O)[C@](C)(O)C[C@@H](C)CN(C)[C@H](C)[C@@H](O)[C@]1(C)O [azithromycin]
Atopobium vaginae
  Etest susceptibility concentration (range): <0.016 to 0.32 µg/mL

## CC1(C)S[C@@H]2[C@H](NC(=O)[C@H](N)c3ccccc3)C(=O)N2[C@H]1C(=O)O [ampicillin]
Atopobium vaginae
  Etest susceptibility concentration (range): <0.016 to 0.94 µg/mL

## Cc1ncc([N+](=O)[O-])n1CCO [metronidazole]
Strain 49145
  Minimum Inhibitory Concentration (MIC): 4
Strain ARG3
  Minimum Inhibitory Concentration (MIC): 4
[1]
  half-life: 6 to 7 h
[2]; at four weeks, oral regimens for one week
  cure rates (by Amsel criteria): approximately 80%
[2]; multiple divided-dose oral regimens for one week
  early rates of clinical cure: > 90%

## penicillin
Atopobium vaginae
  Etest susceptibility concentration (range): 0.008 to 0.25 µg/mL

## DNase
[3]; DNase 10 μg/ml and 100 μg/ml, administered at time=0 hours, FIG. 1
  extent of biofilm formation (A462): dramatic reduction
[3]; DNase alone 1 μg/mL, t=0 hours
  reduction in biofilm formation (% biofilm density): 30%
[3]; DNase alone 1 μg/mL, t=0 hours, FIG. 8 (C)
  reduction in biofilm formation (A462): 30%
[3]; DNase alone 100 μg/mL, t=0 hours
  reduction in biofilm formation (% biofilm density): 75%
[4]
  extent of biofilm formation (% biofilm density): dramatic reduction
[5]
  breakdown of established biofilms: dose-dependent breakdown
[6]
  breakdown of established biofilms: dose-dependent breakdown
[7]
  extent of biofilm formation (A462): dramatic reduction
[8]; DNase alone
  bacterial killing in biofilm cultures: does not kill the bacteria
[8]; DNase, FIGS. 13-15
  release of biofilm-embedded bacteria: released into the supernatant
G. Vaginalis ARG37
  establishment of vaginal colonization: inhibited the establishment of colonization
Gardnerella biofilms
  biofilm matrix and overall density by fluorescence microscopy: decrease in the biofilm matrix and in overall density
[9]
  reduction in biofilm formation or breakdown: no reduction in biofilm formation or breakdown

## O=C(O)c1cn(C2CC2)c2cc(N3CCNCC3)c(F)cc2c1=O [ciprofloxacin]
Atopobium vaginae
  Etest susceptibility concentration (range): 0.023 to 0.25 µg/mL
